The text below walks through data of patent publication US12612412B2, “Antiviral heterocyclic compounds” (Enanta Pharmaceuticals, Inc., priority 2021, dated 2026).

Assay [1] relates to HMPV clinical isolate TN/1501/A1. The experiment in a line: HMPV antiviral assay Method-B (clinical isolate TN/1501/A1 in LLC-MK2 cells, ATP-Lite readout). Type of assay: cell-based, Human metapneumovirus (HMPV). Conditions: human metapneumovirus, LLC-MK2, 144 h, hMPV WT1501 (clinical isolate TN/1501/A1), 6 days. The gist of the method:
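LLC-MK2 cells infected in suspension with TN/1501/A1 at MOI 0.014 in serum-free medium with 2 μg/mL TPCK-trypsin (final), incubated 6 days at 37° C. Compounds tested in duplicate, 10-point 3-fold dilutions from 10 μM. Cell health read by ATP-Lite luminescence, normalised to virus-only and cells-only controls; EC50 by four-parameter logistic fit.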

For assay [2], the system named is genotype A, "Long" strain RSV. The experiment in a line: RSV-A assay (CPE protection in Hep-2 cells, ATPlite readout). The class given is cell-based, Human respiratory syncytial virus (HRSV). Conditions: human respiratory syncytial virus, genotype A “Long” strain RSV, MOI 0.1, CPE protection, read-out: Human RSV-A (“Long”). The gist of the method:
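In this cytopathic-effect protection format, infected Hep-2 cultures (MOI 0.1) are exposed to compound for 5 days. Surviving cell ATP is quantified with ATPlite, and EC50 is determined.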

As to `COc1cc(C(=O)NC[C@](O)(c2cc3c(c(-c4cc(Cl)c(F)cc4F)n2)OC[C@]3(C)C(N)=O)C(F)(F)F)cc2cc(Cl)c(C)nc12` [Example 620], the EC50 in assay [1] is under 500 nM; in assay [2], under 200 nM.
For the molecule `COc1cc(C(=O)NC[C@](O)(c2cc3c(c(-c4cc(Cl)c(F)cc4F)n2)OC[C@]3(C)C(N)=O)C(F)(F)F)cc2cc(Br)cnc12` [Example 621], the EC50 in assay [1] was under 500 nM; in assay [2], under 200 nM.
For `C[C@]1(C(N)=O)COc2c1cc([C@@](O)(CNC(=O)c1cc(Cl)c3nn(C4CC4)cc3c1)C1CC1)nc2-c1csc2c(F)cccc12` [Example 622], the EC50 in assay [1] was under 500 nM; in assay [2], under 200 nM.
With `C[C@]1(C(N)=O)COc2c1cc([C@@](O)(CNC(=O)c1ccc(F)c(NC(=O)NC3CC3)c1)C(F)(F)F)nc2-c1ccc(F)cc1` [Example 623], the EC50 was over 500 nM in assay [1] and under 200 nM in assay [2].
For `C[C@]1(C(N)=O)COc2c1cc([C@@](O)(CNC(=O)c1cc(F)c(F)c(NC(=O)NC3CC3)c1)C(F)(F)F)nc2-c1ccc(F)cc1` [Example 624], in that order: over 500 nM and under 200 nM.
Take `COc1ccc(C(=O)NC[C@](O)(c2cc3c(c(-c4ccc(F)cc4)n2)OC[C@]3(C)C(N)=O)C(F)(F)F)cc1NC(=O)NC1CC1` [Example 625]: the EC50 in assay [1] was over 500 nM; in assay [2] it was under 200 nM.
Regarding `C[C@]1(C(N)=O)COc2c1cc([C@@](O)(CNC(=O)c1ccc(F)c(NC(=O)NC3CC3)c1)C(F)(F)F)nc2-c1ccc(F)c(Cl)c1` [Example 626], the EC50 in assay [1] was over 500 nM; in assay [2], under 200 nM.
Consider `COc1ccc(C(=O)NC[C@](O)(c2cc3c(c(-c4ccc(F)c(Cl)c4)n2)OC[C@]3(C)C(N)=O)C(F)(F)F)cc1NC(=O)NC1CC1` [Example 627], for which the EC50 was over 500 nM in assay [1] and under 200 nM in assay [2].
Turning to `C[C@]1(C(N)=O)COc2c1cc([C@@](O)(CNC(=O)c1cc(F)cc(NC(=O)NC3CC3)c1)C(F)(F)F)nc2-c1ccc(F)cc1` [Example 628], the EC50 was over 500 nM in assay [1] and over 200 nM in assay [2].
For the molecule `COc1cc(C(=O)NC[C@](O)(c2cc3c(c(-c4ccc(F)c(Cl)c4)n2)OC[C@]3(C)C(N)=O)C2CC2)cc2cc(Cl)c(C)nc12` [Example 633], the results for the EC50 in assay [1] and in assay [2] were under 500 nM and under 200 nM, respectively.
For `COc1cc(C(=O)NC[C@](O)(c2cc3c(c(-c4ccc(F)c(C)c4)n2)OC[C@]3(C)C(N)=O)C(F)(F)F)cc2cn(C3CC3)nc12` [Example 636] the same measures were under 500 nM and under 200 nM.
For `Cc1nc2c(OC3CC3)cc(C(=O)NC[C@](O)(c3cc4c(c(-c5ccc(F)cc5)n3)OC[C@]4(C)C(N)=O)C3CC3)cc2cc1Cl` [Example 637] the same measures were under 500 nM and under 200 nM.
As to `Cc1nc2c(OC3CC3)cc(C(=O)NC[C@](O)(c3cc4c(c(-c5ccc(F)c(Cl)c5)n3)OC[C@]4(C)C(N)=O)C3CC3)cc2cc1Cl` [Example 638], the figures for the EC50 in assay [1] and in assay [2] were under 500 nM and under 200 nM, respectively.
On to `COc1cc(C(=O)NC[C@](O)(c2cc3c(c(-c4ccc5c(c4)OC(F)(F)O5)n2)OC[C@]3(C)C(N)=O)C(F)(F)F)cn2cc(C3CC3)nc12` [Example 639], for which the values for the EC50 in assay [1] and in assay [2] were under 500 nM and under 200 nM, respectively.
Regarding `COc1cc(C(=O)NC[C@](O)(c2cc3c(c(-c4ccc5c(c4)OC(F)(F)O5)n2)OC[C@]3(C)C(N)=O)C(F)(F)F)cc2cc(Cl)c(C)nc12` [Example 640], the figures for the EC50 in assay [1] and in assay [2] were under 500 nM and under 200 nM, respectively.
For `CC[C@](O)(CNC(=O)c1cc(OC)c2nn(C3CC3)cc2c1)c1cc2c(c(-c3ccc(F)cc3)n1)OC[C@]2(C)C(N)=O` [Example 642], in that order: over 500 nM and under 200 nM.
As to `CC[C@](O)(CNC(=O)c1cc(OC)c2nc(C)c(Cl)cc2c1)c1cc2c(c(-c3ccc(F)cc3)n1)OC[C@]2(C)C(N)=O` [Example 643], the EC50 in assay [1] is under 500 nM; in assay [2] it was under 200 nM.
For `COc1cc(C(=O)NC[C@](O)(c2cc3c(c(-c4ccc(F)cc4)n2)OC[C@]3(C)C(N)=O)C2CCCC2)cc2cn(C3CC3)nc12` [Example 644], in that order: over 500 nM and over 200 nM.
Consider `[2H]C([2H])([2H])[C@](O)(CNC(=O)c1cc(OC)c2nn(C3CC3)cc2c1)c1cc2c(c(-c3ccc(F)cc3)n1)OC[C@]2(C)C(N)=O` [Example 645], for which the EC50 in assay [1] is over 500 nM; in assay [2], under 200 nM.
Take `[2H]C([2H])([2H])[C@](O)(CNC(=O)c1cc(OC2CC2)c2ncccc2c1)c1cc2c(c(-c3ccc(F)cc3)n1)OC[C@]2(C)C(N)=O` [Example 646]: the EC50 in assay [1] was over 500 nM; in assay [2], under 200 nM.
Regarding `[2H]C([2H])([2H])[C@](O)(CNC(=O)c1cc(OC(F)F)c2ncc(C)cc2c1)c1cc2c(c(-c3ccc(F)cc3)n1)OC[C@]2(C)C(N)=O` [Example 647], the EC50 in assay [1] was over 500 nM; in assay [2] it was under 200 nM.
For `COc1cc(C(=O)NC[C@](O)(c2cc3c(c(-c4ccc(F)cc4)n2)OC[C@]3(C)C(N)=O)C(F)(F)F)cc2c(F)n(C3CC3)nc12` [Example 649] the same measures were over 500 nM and under 200 nM.
On to `COc1cc(C(=O)NC[C@](O)(c2cc3c(c(-c4ccc5c(c4)OC(F)(F)O5)n2)OC[C@]3(C)C(N)=O)C2CC2)cc2c(F)n(C3CC3)nc12` [Example 650], for which the EC50 in assay [1] was under 500 nM; in assay [2], under 200 nM.
Consider `COc1cc(C(=O)NC[C@](O)(c2cc3c(c(-c4ccc(F)c(C(F)(F)F)c4)n2)OC[C@]3(C)C(N)=O)C2CC2)cc2cn(C3(F)CC3)nc12` [Example 651], for which the EC50 in assay [1] was under 500 nM; in assay [2], under 200 nM.
For `COc1cc(C(=O)NC[C@](O)(c2cc3c(c(-c4ccc(F)cc4Cl)n2)OC[C@]3(C)C(N)=O)C2CC2)cc2cn(C3(F)CC3)nc12` [Example 652] the same measures were under 500 nM and under 200 nM.
As to `COc1cc(C(=O)NC[C@](O)(c2cc3c(c(-c4ccc(F)cc4)n2)OC[C@@H]3C(N)=O)C(F)(F)F)cc2cn(C3CC3)nc12` [Example 653], the EC50 is over 500 nM in assay [1] and under 200 nM in assay [2].
For `COc1cc(C(=O)NC[C@](O)(c2cc3c(c(-c4cc(F)c(F)cc4Cl)n2)OC[C@]3(C)C(N)=O)C(F)(F)F)cc2cn(C3CC3)nc12` [Example 654] the same measures were under 500 nM and under 200 nM.
Turning to `COc1cc(C(=O)NC[C@](O)(c2cc3c(c(-c4ccc(F)c(C(F)(F)F)c4)n2)OC[C@]3(C)C(N)=O)C2CC2)cc2cn(C(F)F)nc12` [Example 655], the values for the EC50 in assay [1] and in assay [2] were under 500 nM and under 200 nM, respectively.
Turning to `COc1cc(C(=O)NC[C@](O)(c2cc3c(c(-c4ccc(F)cc4Cl)n2)OC[C@]3(C)C(N)=O)C2CC2)cc2cn(C(F)F)nc12` [Example 656], the results for the EC50 in assay [1] and in assay [2] were under 500 nM and under 200 nM, respectively.
Turning to `COc1cc(C(=O)NC[C@](O)(c2cc3c(c(-c4cc(F)c(F)cc4Cl)n2)OC[C@]3(C)C(N)=O)C2CC2)cc2cn(C(F)F)nc12` [Example 658], the EC50 in assay [1] was under 500 nM; in assay [2], under 200 nM.
In the case of `COc1cc(C(=O)NC[C@](O)(c2cc3c(c(-c4cc(F)c(F)cc4Cl)n2)OC[C@]3(C)C(N)=O)C2CC2)cc2cn(C3(F)CC3)nc12` [Example 659], the figures for the EC50 in assay [1] and in assay [2] were under 500 nM and under 200 nM, respectively.
As for `COc1cc(C(=O)NC[C@](O)(c2cc3c(c(-c4cc(F)c(F)cc4Cl)n2)OC[C@]3(C)C(N)=O)C2CC2)cc2cc(Br)cnc12` [Example 660], the EC50 in assay [1] is under 500 nM; in assay [2], under 200 nM.
Turning to `COc1cc(C(=O)NC[C@](O)(c2cc3c(c(-c4cc(Cl)c(F)cc4F)n2)OC[C@]3(C)C(N)=O)C2CC2)cc2cn(C3CC3)nc12` [Example 661], the EC50 in assay [1] was under 500 nM; in assay [2], under 200 nM.
`COc1cc(C(=O)NC[C@](O)(c2cc3c(c(-c4cc(Cl)c(F)cc4F)n2)OC[C@]3(C)C(N)=O)C2CC2)cc2cn(C(F)F)nc12` [Example 662]: the EC50 in assay [1] is under 500 nM; in assay [2], under 200 nM.
For `COc1cc(C(=O)NC[C@](O)(c2cc3c(c(-c4cc(Cl)c(F)cc4F)n2)OC[C@]3(C)C(N)=O)C2CC2)cc2cn(C3(F)CC3)nc12` [Example 663], the EC50 is under 500 nM in assay [1] and under 200 nM in assay [2].
`COc1cc(C(=O)NC[C@](O)(c2cc3c(c(-c4cc(Cl)c(F)cc4F)n2)OC[C@]3(C)C(N)=O)C2CC2)cc2cc(Br)cnc12` [Example 664]: the EC50 is under 500 nM in assay [1] and under 200 nM in assay [2].
For `Cc1cnc2c(OC(F)F)cc(C(=O)NC[C@](O)(c3cc4c(c(-c5cc(Cl)c(F)cc5F)n3)OC[C@]4(C)C(N)=O)C3CC3)cc2c1` [Example 665], in that order: under 500 nM and under 200 nM.
On to `COc1cc(C(=O)NC[C@](O)(c2cc3c(c(-c4cc(Cl)c(F)cc4F)n2)OC[C@]3(C)C(N)=O)C2CC2)cc2cc(Cl)c(C)nc12` [Example 666], for which the EC50 in assay [1] was under 500 nM; in assay [2], under 200 nM.
As for `C[C@]1(C(N)=O)COc2c1cc([C@@](O)(CNC(=O)c1cc(Cl)c3nn(C4CC4)cc3c1)C1CC1)nc2-c1cc(Cl)c(F)cc1F` [Example 668], the EC50 was under 500 nM in assay [1] and under 200 nM in assay [2].
With `COc1cc(C(=O)NC[C@](O)(c2cc3c(c(-c4cc(Cl)c(F)c(Cl)c4)n2)OC[C@]3(C)C(N)=O)C(F)(F)F)cc2cn(C3CC3)nc12` [Example 669], the EC50 is over 500 nM in assay [1] and under 200 nM in assay [2].
